Legend:
bovine tubulin = assay: In vitro tubulin polymerization assay (turbidity at 340 nm); assay type: biochemical; settings: 10 μM compound, 30 minute data point, vs 1% DMSO control
How it was run: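 Bovine tubulin (97%, <3% MAPs) at 3 mg/ml final in G-PEM pH 7 with 1 mM GTP and 5% glycerol, added cold to compound wells at 37° C (1% DMSO final). A340 read each minute for 30 min; percent inhibition from 30-min point versus DMSO control.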

[1] = test system: A431, human epidermoid carcinoma cells; assay: Cell cycle analysis (FACS), mitotic arrest in G2/M; assay type: cell-based; settings: Homo sapiens, A-431, 24 h, read-out: FACS Assay: concentration required to achieve inhibition in FACS assay
Method: The cell cycle analysis was performed as follows. Cancer cells (A431, human epidennoid carcinoma cells) were maintained in culture in D-MEM media with 10% FBS and 1 mg/ml glutamate. Prior to experiment, cells were plated onto 6-well plates for a final density of 500,000 cells/well at the time of treatment. Cells were treated with the compounds of the invention at a concentration of about 0.01 to 1 μM final concentrations (final 0.1% DMSO) for 24 hours, then trypsinized, collected, rinsed in PBS (phosphate buffered saline), and fixed in 70% cold ethanol overnight at 4° C. The cells were then rinsed with PBS, resuspended in PBS with 0.2% Tween, RNAse was added (final 1 μg/ml), cells were incubated at 37° C. for 15 min, followed by addition of Propidium Iodide (final 50 μg/ml), and a 30 minute incubation at room temperature. DNA ploidy was analyzed using flow cytometers (Epics Excel, Beckman-Coulter, or Guava PCA-96, Guava Technologies) and mitotic arrest characterized by massive accumulation of cells in the G2/M phase of cell cycle.
Cancer cells (A431, human epidermoid cells) were maintained in culture in D-MEM media with 10% FBS and 1 mg/ml glutamate. Prior to experiment, cells are plated onto 6-well plates for a final density of 500,000 cells/well at the time of treatment. Cells were treated with compounds at 0.01-1 μM final concentrations (final […] DMS 0) for 24 hours, then trypsinized, collected, rinsed in PBS (phosphate buffered saline), and fixed in 70% cold ethanol overnight at 4° C. Cells were then rinsed with PBS, resuspended in PBS with 0.2% Tween, RNAse was added (final 1 μg/ml), cells were incubated at 37° C. for 15 min, followed by addition of Propidium Iodide (final 50 μg/ml), and a 30 minute incubation at room temperature. DNA ploidy was analyzed using cell sorters (Epics Excel, Beckman-Coulter, or Guava PCA-96, Guava Technologies) and mitotic arrest characterized by massive accumulation of cells in the G2/M phase of cell cycle.

| Compound | Tubulin Assay: percent inhibition at 10 μM based on 30 minute data (bovine tubulin) [%] | minimal effective concentration [1] [µM] |
| --- | --- | --- |
| c1cnc(OCc2ccc3c(c2)OCO3)c(-c2nnc(Nc3ccc4c(c3)OCCO4)[nH]2)c1 [Compound 71, {5-[2-(Benzo[1,3]dioxol-5-ylmethoxy)-pyridin-3-yl]-4H-[1,2,4]triazol-3-yl}-(2,3-dihydro-benzo[1,4]dioxin-6-yl)-amine] | 83 | 0.1 |
| CS(=O)(=O)c1ccc(-c2nnc(-c3cccnc3NCc3ccco3)[nH]2)cc1 [Compound 98, Furan-2-ylmethyl-{3-[5-(4-methanesulfonyl-phenyl)-4H-[1,2,4]triazol-3-yl]-pyridin-2-yl}-amine] | 83 | 1 |
| c1cncc(CNc2ccccc2-c2nnc(Nc3ccc4c(c3)OCCO4)o2)c1 [Compound 216, (2,3-Dihydro-benzo[1,4]dioxin-6-yl)-(5-{2-[(pyridin-3-ylmethyl)-amino]-phenyl}-[1,3,4]oxadiazol-2-yl)-amine] | 94 | 0.1 |
| COc1cccc(CNc2ncccc2-c2nnc(Nc3ccc4c(c3)OCCO4)o2)c1 [Compound 159, {3-[5-(2,3-Dihydro-benzo[1,4]dioxin-6-ylamino)-[1,3,4]oxadiazol-2-yl]-pyridin-2-yl}-(3-methoxy-benzyl)-amine] | 87 | 0.075 |
| c1ccc(CNc2ccccc2-c2nnc(Nc3ccc4c(c3)OCCO4)o2)nc1 [Compound 217, (2,3-Dihydro-benzo[1,4]dioxin-6-yl)-(5-{2-[(pyridin-2-ylmethyl)-amino]-phenyl}-[1,3,4]oxadiazol-2-yl)-amine] | 100 | 0.1 |
| FC(F)(F)Oc1cccc(-c2nnc(-c3ccccc3NCc3ccc4c(c3)OCO4)[nH]2)c1 [Compound 141, Benzo[1,3]dioxol-5-ylmethyl-{2-[5-(3-trifluoromethoxy-phenyl)-4H-[1,2,4]triazol-3-yl]-phenyl}-amine] | 88 | 0.1 |
| COc1cc(Nc2ncccc2-c2nnc(Nc3cccc([N+](=O)[O-])c3)[nH]2)cc(OC)c1 [Compound 60a, (3,5-dimethoxy-phenyl)-{3-[5-(3-nitro-phenylamino)-4H-[1,2,4]triazol-3-yl]-pyridin-2-yl}-amine] | 95 | 0.1 |
| COc1cccc(CNc2nnc(-c3cccnc3Nc3cc(OC)cc(OC)c3)[nH]2)c1 [Compound 58, (3,5-Dimethoxy-phenyl)-{3-[5-(3-methoxy-benzylamino)-4H-[1,2,4]triazol-3-yl]-pyridin-2-yl}-amine] | 100 | 0.1 |
| COc1ccc(CNc2ncccc2-c2nnc(Nc3ccc(OC)c(OC)c3)o2)cc1OC [Compound 166, (3,4-Dimethoxy-benzyl)-{3-[5-(3,4-dimethoxy-phenylamino)-[1,3,4]oxadiazol-2-yl]-pyridin-2-yl}-amine] | 53 | 1 |
| c1cnc(NCC2COCCO2)c(-c2nnc(Nc3ccc4c(c3)OCCO4)o2)c1 (stereo not drawn) [Compound 203, {3-[5-(2,3-Dihydro-benzo[1,4]dioxin-6-ylamino)-[1,3,4]oxadiazol-2-yl]-pyridin-2-yl}-[1,4]dioxan-2-ylmethyl-amine] | 69 | 0.1 |
| Fc1cccc(CNc2ncccc2-c2nnc(Nc3ccc4c(c3)OCCO4)o2)c1 [Compound 168, {3-[5-(2,3-Dihydro-benzo[1,4]dioxin-6-ylamino)-[1,3,4]oxadiazol-2-yl]-pyridin-2-yl}-(3-fluoro-benzyl)-amine] | 95 | 0.1 |
| Fc1ccc(CNc2ncccc2-c2nnc(Nc3ccc4c(c3)OCCO4)o2)cc1 [Compound 169, {3-[5-(2,3-Dihydro-benzo[1,4]dioxin-6-ylamino)-[1,3,4]oxadiazol-2-yl]-pyridin-2-yl}-(4-fluoro-benzyl)-amine] | 82 | 0.1 |
| COc1cccc(CNc2ncccc2-c2nnc(Nc3ccc4c(c3)OCO4)o2)c1 [Compound 156, {3-[5-(Benzo[1,3]dioxol-5-ylamino)-[1,3,4]oxadiazol-2-yl]-pyridin-2-yl}-(3-methoxy-benzyl)-amine] | 64 | 1 |
| c1cnc(NCc2ccc3c(c2)CCO3)c(-c2nnc(Nc3ccc4c(c3)OCO4)o2)c1 [Compound 198, {3-[5-(Benzo[1,3]dioxol-5-ylamino)-[1,3,4]oxadiazol-2-yl]-pyridin-2-yl}-(2,3-dihydro-benzofuran-5-ylmethyl)-amine] | 87 | 0.1 |
| COc1cc(Nc2ncccc2-c2nnc(N)o2)cc(OC)c1 [Compound 243a, [3-(5-Amino-[1,3,4]oxadiazol-2-yl)-pyridin-2-yl]-(3,5-dimethoxy-phenyl)-amine] | 46 |  |
| Brc1ccc(-c2nnc(-c3ccccc3NCc3ccc4[nH]cnc4c3)[nH]2)cc1 [Compound 147, (1H-Benzoimidazol-5-ylmethyl)-{2-[5-(4-bromo-phenyl)-4H-[1,2,4]triazol-3-yl]-phenyl}-amine] | 43 |  |
| c1cnc(NCC2COCCO2)c(-c2nnc(Nc3ccc4c(c3)OCCO4)[nH]2)c1 (stereo not drawn) [Compound 55, {3-[5-(2,3-Dihydro-benzo[1,4]dioxin-6-ylamino)-4H-[1,2,4]triazol-3-yl]-pyridin-2-yl}-[1,4]dioxan-2-ylmethyl-amine] | 23 |  |
| Brc1ccc(-c2nnc(-c3ccccc3NCc3ccc4cn[nH]c4c3)[nH]2)cc1 [Compound 146, {2-[5-(4-Bromo-phenyl)-4H-[1,2,4]triazol-3-yl]-phenyl}-(1H-indazol-6-ylmethyl)-amine] | 39 |  |
| FC(F)(F)Oc1cccc(-c2nnc(-c3ccccc3NCc3ccc4c(c3)OCCO4)[nH]2)c1 [Compound 142, (2,3-Dihydro-benzo[1,4]dioxin-6-ylmethyl)-{2-[5-(3-trifluoromethoxy-phenyl)-4H-[1,2,4]triazol-3-yl]-phenyl}-amine] | 20 |  |
| c1cnc(NCc2ccc3c(c2)OCCO3)c(-c2nnc(Nc3ccc4c(c3)OCO4)[nH]2)c1 [Compound 34, {3-[5-(Benzo[1,3]dioxol-5-ylamino)-4H-[1,2,4]triazol-3-yl]-pyridin-2-yl}-(2,3-dihydro-benzo[1,4]dioxin-6-ylmethyl)-amine] | 69 |  |
| COc1cc(Nc2ncccc2-c2nnc(Nc3cccc(NCc4ccc5c(c4)OCO5)c3)[nH]2)cc(OC)c1 [Compound 60, N-Benzo[1,3]dioxol-5-ylmethyl-N′-{5-[2-(3,5-dimethoxy-phenylamino)-pyridin-3-yl]-4H-[1,2,4]triazol-3-yl}-benzene-1,3-diamine] | 99 |  |
| Fc1ccc(-c2nnc(-c3cccnc3NCc3ccc4c(c3)OCO4)[nH]2)cc1Cl [Compound 81, Benzo[1,3]dioxol-5-ylmethyl-{3-[5-(3-chloro-4-fluoro-phenyl)-4H-[1,2,4]triazol-3-yl]-pyridin-2-yl}-amine] | 20 |  |
| COc1cc(CNc2ccccc2-c2nnc(-c3ccc(C(F)(F)F)cc3)[nH]2)cc(OC)c1 [Compound 140, (3,5-Dimethoxy-benzyl)-{2-[5-(4-trifluoromethyl-phenyl)-4H-[1,2,4]triazol-3-yl]-phenyl}-amine] | 20 |  |
| N#Cc1ccc(S(=O)(=O)Nc2ccccc2-c2nnc(Nc3ccc4c(c3)OCCO4)[nH]2)cc1 [Compound 128, 4-Cyano-N-{2-[5-(2,3-dihydro-benzo[1,4]dioxin-6-ylamino)-4H-[1,2,4]triazol-3-yl]-phenyl}-benzenesulfonamide] | 42 |  |
| CN1CCN(c2ccc(-c3nnc(Nc4ccc5c(c4)OCCO5)o3)c([N+](=O)[O-])c2)CC1 [Compound 236, (2,3-Dihydro-benzo[1,4]dioxin-6-yl)-{5-[4-(4-methyl-piperazin-1-yl)-2-nitro-phenyl]-[1,3,4]oxadiazol-2-yl}-amine] | 59 |  |

From patent US20090048301A1 (IMCLONE SYSTEMS INCORPORATED, priority 2003, published 2009)
